Results on six compounds are retold here after patent publication US8080115B2, “Method for the surface treatment of a metallic or fibrous material” (priority 2005, dated 2011).

A short description of series [1]: Risks of harmfulness for the aquatic environment / bioaccumulation. The arrangement: key: −=harmful demonstrated; +=slight risk; ++=very slight risks. An excerpt: For each of Compositions A to E, the characteristics of odor (“ODOR”), of stability at alkaline pH, i.e. at a pH of 9 (“STAB.”) and of risks of harmfulness in terms of protection of the aquatic environment/bioaccumulation (“BIO.”) are taken up in the table below according to the following notation: […]

The test system of series [2] is aquatic organisms, such as bacteria, freshwater algae, daphnia and freshwater fish. Briefly: Toxicity for aquatic organisms.
A short description of series [3]: Flammability / flashpoint of the compositions. The format is physicochemical.
Series [4] is described as follows: Ready biodegradability, OECD No. 301 A (DOC Die-away Test). Particulars: at 28 days.
A short description of series [5]: Degreasing of steel sheets with an impregnated cotton pad. Set-up: key to degreasing grade: Grade=1: visible residual presence of a thin greasy film; Grade=2: visible residual presence of small greasy spots; Grade=3: visible absence of fatty substance (degreased sheet). Particulars: for OVERALL GRADE (/10): from the number of the 9 fatty substances with grade 3. The source says: Steel sheets covered with a thin, uniform film of different greases, lubricants or straight cutting oils commonly used in the metal-processing industry are degreased.
The performances of these 7 compositions are compared for 9 commercial greases and oils of different chemical mixtures.
For the purpose of the evaluation, a cotton pad is impregnated with the test composition and then this cotton pad is brought into contact with a thin and uniform film of fatty substances deposited on the surface of a steel sheet. This operation is repeated twice. The steel sheet is subsequently rinsed with cold water, so as to remove the solvent. The degreasing effect is subsequently graded as follows:
Grade=1: visible residual presence of a thin greasy film,
Grade=2: visible residual presence of small greasy spots,
Grade=3: visible absence of fatty substance (degreased sheet).
For each of Compositions 1 to 7, an “overall grade” is assigned to the function of the number of fatty substances for which the composition in question has not made it possible to achieve the grade of 3. This overall grade, with a maximum value of 10, is assigned in the following way:
For each Composition 1 to 7, the grade obtained a) for the specific degreasing of each of the fatty substances FS1 to FS9 deposited (grade from 1 to 3) and b) overall, as degreasing composition (grades from 6/10 to 10/10) is thus taken up in the table below.

Series [6] in a line: Aerobic inherent biodegradability, OECD 302 B (Zahn-Wellens EMPA Test). Particulars: at 28 days. The source says: The biodegradability is here measured according to the process, hereinafter denoted “OECD 302 B”, recommended by the OECD under the following number and following title: No. 302 B—Inherent Biodegradability: Zahn—Wellens EMPA Test.
A further series has as its system man. Particulars: previously described advantages; cited from earlier work.
For series [7] the following is noted: compulsory labelings R51/R53; cited from earlier work.
The mark [8] stands for this setting: FS 2 = mixture of petroleum mineral oils.
Setting [9] is: FS 4 = molybdenum disulfide grease.
Where [10] appears, read: FS 5 = mixture of mineral oil, of paraffinic hydrocarbons and of graphite.
The mark [11] stands for this setting: FS 6 = polydimethylsiloxane oil.
The mark [12] stands for this setting: FS 7 = mutifraction oily mixture.
Where [13] appears, read: FS 8 = biostable polyvalent microemulsion.
Where [14] appears, read: FS 9 = nonchlorinated special lubricant.

With “2,2,4-trimethyl-1,3-pentanediol monoisobutyrate [Composition A]”, in series [1], the “BIO. (risks of harmfulness, protection of the aquatic environment/bioaccumulation)” value is “−”.

As for `CO[C@H]1CO[C@H]2[C@@H]1OC[C@H]2OC` [Composition 5, dimethyl isosorbide], the “BIO. (risks of harmfulness, protection of the aquatic environment/bioaccumulation)” value in series [1] is “++”. Moreover, the “toxicity for aquatic organisms” value in series [2] is reported as “absence of toxicity for aquatic organisms”. Besides, the flashpoint in series [3] stood at 120 °C. The ready biodegradability in series [4] was approximately 25%. Moreover, the degreasing grade in series [5] (FS 1 = paraffinic mineral oil) amounted to 3; in series [5] (setting [8]), 3; in series [5] (FS 3 = food-grade mineral oil) it was 2; in series [5] (setting [9]), 3; in series [5] (setting [10]), 2; in series [5] (setting [11]), 2. Further, the degreasing grade was 3 in series [5] (setting [12]), 2 in series [5] (setting [13]) and 3 in series [5] (setting [14]). For the same compound, in series [5], the “OVERALL GRADE (/10)” value is given as 6 /10. This compound also returned an aerobic inherent biodegradability in series [6] of approximately 36%. Moreover, the “irritant nature and toxicity to man” value with man was “absence of irritant nature and of toxicity to man”.

Take `ClCCl` [Composition 2, dichloromethane]: the “toxicity for the environment” value in series [7] is on record as “a certain toxicity”. Also, the degreasing grade in series [5] (FS 1 = paraffinic mineral oil), in series [5] (setting [8]), in series [5] (FS 3 = food-grade mineral oil), in series [5] (setting [9]), in series [5] (setting [10]) and in series [5] (setting [11]) was 3 each time. Besides, the degreasing grade in series [5] (setting [12]), in series [5] (setting [13]) and in series [5] (setting [14]) was 3 throughout. Further, in series [5], the “OVERALL GRADE (/10)” value is given as 10 /10.

Regarding `ClC=C(Cl)Cl` [Composition 1, trichloroethylene], the “toxicity for the environment” value in series [7] is “a certain toxicity”. The degreasing grade in series [5] (FS 1 = paraffinic mineral oil), in series [5] (setting [8]), in series [5] (FS 3 = food-grade mineral oil), in series [5] (setting [9]), in series [5] (setting [10]) and in series [5] (setting [11]) was 3 in each case. For the same compound, the degreasing grade in series [5] (setting [12]), in series [5] (setting [13]) and in series [5] (setting [14]) was 3 throughout. In series [5], the “OVERALL GRADE (/10)” value was 10 /10.

On to `CCOC(=O)C(C)O` (stereo not shown) [Composition 4, ethyl lactate], for which the flashpoint in series [3] came to 46 °C. Further, the degreasing grade is 3 in series [5] (FS 1 = paraffinic mineral oil); 3 in series [5] (setting [8]); 3 in series [5] (FS 3 = food-grade mineral oil); 3 in series [5] (setting [9]); 2 in series [5] (setting [10]); 3 in series [5] (setting [11]). The degreasing grade in series [5] (setting [12]) came out at 3; in series [5] (setting [13]), 2; in series [5] (setting [14]), 3. For the same compound, the “OVERALL GRADE (/10)” value in series [5] is on record as 8 /10.

For the compound `C=C(C)[C@H]1CC=C(C)CC1` [Composition 3, dipentene], in series [3], the flashpoint was determined as 48 °C. For the same compound, the degreasing grade in series [5] (FS 1 = paraffinic mineral oil), in series [5] (setting [8]), in series [5] (FS 3 = food-grade mineral oil), in series [5] (setting [9]), in series [5] (setting [10]) and in series [5] (setting [11]) was 3 throughout. For the same compound, the values for the degreasing grade in series [5] (setting [12]), in series [5] (setting [13]) and in series [5] (setting [14]) were 3, 2 and 3, respectively. Besides, in series [5], the “OVERALL GRADE (/10)” value is given as 9 /10.
